Data: patent US10550079B2, “Artificial self-sufficient cytochrome P450s” (University of Florida Research Foundation, Incorporated, priority 2015, dated 2020)

How the values were obtained:
TxtE = TxtE (Streptomyces scabiei, UniProt C9ZDC6); test: Nitration of fluorinated tryptophan substrates by TxtE; type: biochemical, S. scabies 87.22; parameters: inferred from the pET28 vector and Ni-NTA purification) (C); made in house; host or cells: E. coli BL21 (DE3)-GOLD
Procedure: (§1) P450 reactions contained 0.5 mM substrate, 1 mM NADP^+, 1 mM glucose, ˜10 units/mL self-prepared glucose dehydrogenase crude extract, 1 mM NOC-5 in 100 μL of Tris-HCl buffer (100 mM, pH 8.0). As the positive control, TxtE reaction was also re-constructed in the above mixture further supplemented with 0.43 μM spinach Fer and 0.33 μM Frd. The reactions were initiated by adding 1.5 μM P450s, and incubated at 20° C., 300 rpm on a thermostat (Eppendorf) for 2 hours. Methanol (200 μl) was then added to stop the reactions. After centrifugation, 10 μl solutions were analyzed by HPLC. […] The flow rate was set as 1.5 ml/min, and the products were detected at 211 nm with a PDA detector. […]
(§2) P450 reactions contained 0.5 mM substrate, 1 mM NADP^+, 1 mM glucose, ˜10 units/mL self-prepared glucose dehydrogenase crude extract, 1 mM NOC-5 [3-(aminopropyl)-1-hydroxy-3-isopropyl-2-oxo-1-triazene] in 100 μL of Tris-HCl buffer (100 mM, pH 8.0). […] After centrifugation, 10 μl solutions were analyzed by HPLC. […] The 4-NO2-l-tryptophan was synthesized in a large-scale enzymatic reaction to establish a standard curve for product quantification. […] NADPH consumption in enzyme reactions was measured at 340 nm (ε=6.22 mM^−1·cm^−1) with a Shimadzu UV2700 dual beam UV-Vis spectrophotometer. […] The quantity of nitrated product was determined by HPLC analysis as described above. […]

TxtE-BM3R = target: T1, TxtE-BM3R (UniProt C9ZDC6+P14779); test: Nitration of fluorinated tryptophan substrates by TxtE-BM3R; type: biochemical, S. scabies 87.22 / B. megaterium ATCC 14581
T1 construct: P450BM3 (CYP102A1) reductase domain BM3R with its Domcut-predicted native linker, from B. megaterium ATCC 14581 (GenBank J04832.1); made in house; host or cells: E. coli BL21 (DE3)-GOLD
Procedure: as §1, §2

N[C@@H](Cc1c[nH]c2cccc(F)c12)C(=O)O [4-F-L-tryptophan]
overall conversion rate relative to L-tryptophan (TxtE): about 20% | overall conversion rate relative to L-tryptophan (TxtE-BM3R): about 20%
